The text below walks through data of article PMC4124873, “Photo-antagonism of the GABAA receptor” (Nature Communications, 2014).

The target of test [1] is T1, α1β2γ2 GABAA receptor (Mus musculus, UniProt P62812+P63137). The following applies: for irreversible reduction/block of GABA current post-UV: one cycle of UV.
Test [2] concerns the target T1, α1β2γ2 GABAA receptor. The experiment in a line: Schild analysis of competitive antagonism in HEK cells.
Test [3] deals with T2, α1β2γ2 (wt) GABAA receptor (Mus musculus, UniProt P62812+P63137). Particulars: for Max inhibition: inhibition of GABA EC50 response, wt.
In test [4] the target is T3, α1R119Qβ2γ2 GABAA receptor (Mus musculus, UniProt P62812+P63137, R146Q). The following applies: for Max inhibition: α1R119Qβ2γ2; for potency increase compared with wild type: α1R119Qβ2γ2 vs wild type.
Test [5] deals with T4, α1β2R207Qγ2 GABAA receptor (Mus musculus, UniProt P62812+P63137, R231Q).
Test [6] has as its target T5, α1β2E155Q+R207Qγ2 GABAA receptor (Mus musculus, UniProt P62812+P63137, E179Q/R231Q).
The target in test [7] is T6, α1R119Qβ2R207Qγ2 GABAA receptor (Mus musculus, UniProt P62812+P63137, R146Q/R231Q).
The target of test [8] is T7, α1R119Qβ2E155Q+R207Qγ2 GABAA receptor (Mus musculus, UniProt P62812+P63137, E179Q/R146Q/R231Q).
In test [9] the target is T2, α1β2γ2 (wt) GABAA receptor. The experiment in a line: cell-based.
In test [10] the target is T3, α1R119Qβ2γ2 GABAA receptor. The experiment in a line: cell-based.
The target of test [11] is T4, α1β2R207Qγ2 GABAA receptor. The experiment in a line: cell-based.
Test [12] addresses α1β2E155Qγ2 GABAA receptor (Mus musculus, UniProt P62812+P63137, E179Q). The experiment in a line: cell-based.
The target in test [13] is T5, α1β2E155Q+R207Qγ2 GABAA receptor. The experiment in a line: cell-based.
Test [14] has as its target α1R119Qβ2E155Qγ2 GABAA receptor (Mus musculus, UniProt P62812+P63137, E179Q/R146Q). The experiment in a line: cell-based.
Test [15] deals with T6, α1R119Qβ2R207Qγ2 GABAA receptor. The experiment in a line: cell-based.
The target in test [16] is T7, α1R119Qβ2E155Q+R207Qγ2 GABAA receptor. The experiment in a line: cell-based.
In test [17] the target is T8, α3β3γ2 GABAA receptor (Mus musculus, UniProt P26049+P63080).
T8 construct: expressed in transfected cells; host or cells: HEK cells
The experiment in a line: GZ-B1 inhibition of GABA EC50 responses, receptor subtype selectivity in HEK cells. It is filed as cell-based, murine. Particulars: α3β3γ2, GABA EC50 response, ANOVA Dunnett. The source says: (§1) […]; pH 7.4 (adjusted with 1 M NaOH).

The target in test [18] is T9, α4β3δ GABAA receptor (Mus musculus, UniProt P63080+Q9D6F4).
T9 construct: expressed in transfected cells; host or cells: HEK cells
Described as above. The following applies: GABA EC50 response, ANOVA Dunnett. It is filed as cell-based, murine.
Description: as §1

The target of test [19] is T10, α1R84Qβ2γ2 GABAA receptor (Mus musculus, UniProt P62812+P63137, R111Q).
Test [20] has as its target T11, α1R84Qβ2R207Qγ2 GABAA receptor (Mus musculus, UniProt P62812+P63137, R111Q/R231Q). The following applies: α1R84Qβ2R207Qγ2 double mutant.
Test [21] deals with T10, α1R84Qβ2γ2 GABAA receptor. The experiment in a line: cell-based.
Test [22] concerns the target α1β2D162+163Nγ2 GABAA receptor (Mus musculus, UniProt P62812+P63137, D186N/D187N). The experiment in a line: cell-based.
Test [23] concerns the target T11, α1R84Qβ2R207Qγ2 GABAA receptor. The experiment in a line: cell-based.
The target in test [24] is T12, α1R84+119Qβ2D162+163Nγ2 GABAA receptor (Mus musculus, UniProt P62812+P63137, D186N/D187N/R111Q/R146Q). The experiment in a line: cell-based.
The target in test [25] is T1, α1β2γ2 GABAA receptor. The experiment in a line: cell-based. The following applies: HEK293, read-out: maximum GABA current after UV in the presence of GZ-B1, % of control.
Test [26] addresses T3, α1R119Qβ2γ2 GABAA receptor. The experiment in a line: cell-based. Particulars: HEK293, read-out: maximum GABA current after UV in the presence of GZ-B1, % of control.
In test [27] the target is α1β2D162N,D163Nγ2 GABAA receptor (Mus musculus, UniProt P62812+P63137, D186N/D187N). The experiment in a line: cell-based. The following applies: HEK293, read-out: maximum GABA current after UV in the presence of GZ-B1, % of control.
Test [28] deals with T10, α1R84Qβ2γ2 GABAA receptor. The experiment in a line: cell-based. Particulars: HEK293, read-out: maximum GABA current after UV in the presence of GZ-B1, % of control.
In test [29] the target is T12, α1R84+119Qβ2D162+163Nγ2 GABAA receptor. The experiment in a line: cell-based. Particulars: HEK293, read-out: maximum GABA current after UV in the presence of GZ-B1, % of control.
The test system of test [30] is synaptic GABAA receptors of cerebellar granule cells. The experiment in a line: sIPSCs in cultured cerebellar granule cells after UV photoactivation. The following applies: 10 μM GZ-B1, one UV cycle.
Test [31] addresses T2, α1β2γ2 (wt) GABAA receptor. Set-up: expressed in transfected cells; host or cells: HEK cells. Particulars: α1β2γ2, GABA EC50 response; cited from earlier work.
[32] abbreviates: 10 μM GABA, 10 μM antagonist, one cycle of 10 UV flashes, 3–5 min wash.
The mark [33] stands for this setting: IC50, inhibition of GABA EC50 response, α1R119Qβ2γ2.
The mark [34] stands for this setting: IC50, α1R119Qβ2γ2, as printed in text.
Setting [35] is: IC50, inhibition of GABA EC50 response, α1β2R207Qγ2.

Where “and” joins values, the source holds several entries; their conditions need not be identical. Equal values may be shown once. Read-outs that look alike come from different tables or passages of the source.

One may read the Kb as the affinity of an antagonist, worked out from how it opposes an agonist. A low value points to higher antagonist affinity. Consider `[N-]=[N+]=Nc1ccc(COc2ccc(-c3ccc(=N)n(CCCC(=O)O)n3)cc2)cc1` [GZ-A1], for which the “GABA-induced current post-UV, normalized to control” value in [1] came out at 71.3±6.8%. Further, the “irreversible reduction/block of GABA current post-UV” value (from here on “irreversible reduction/block”) in [1] (10 μM antagonist) is ~ 30%. The compound also displayed a Kb in [2] of 44 nM.

For the compound `N=c1ccc(-c2ccc(OCc3ccc(C4(C(F)(F)F)N=N4)cc3)cc2)nn1CCCC(=O)O` [GZ-D1], in test [1] (setting [32]), the “GABA-induced current post-UV, normalized to control” value is 79.0±4.5%. Besides, in [1] (10 μM antagonist), the “irreversible reduction/block” value is reported as ~ 20%. This compound also came in with a Kb in [2] of 132 nM.

Broadly, the IC50 is the point on the concentration scale where inhibition reaches its midpoint. The low end stands for greater potency, the high end for weaker potency. Consider `COc1ccc(-c2ccc(=N)n(CCCC(=O)O)n2)cc1` [gabazine, reference compound], for which the Max inhibition in test [3] is 100%; in [4], 100%; in test [5], 100%; in test [6], 100%; in test [7], 100%; in [8], 94 ± 1%. In addition, in [4], the “potency increase compared with wild type” value was ~ 2 fold. In addition, the “GABA-induced current post-UV, normalized to control” value in test [1] (setting [32]) is on record as 101.6±3.3%. Further, the IC50 in test [9] was 349 nM; in test [10] (setting [33]), 188 nM; in [10] (setting [34]) it was 188 nM; in test [11] (setting [35]) it was 1710 nM; in test [12] it was more than 100000 nM; in test [13], 1380 nM. Besides, the IC50 in [14] was more than 100000 nM; in test [15], 3750 nM; in test [16], 2260 nM. In test [2], this compound displayed an antagonist dissociation constant (Kb) of 300 nM.

Regarding `N=c1ccc(-c2ccc(C(=O)c3ccccc3)cc2)nn1CCCC(=O)O` [GZ-B2], the “relative potency compared with gabazine” value in test [3] (α1β2γ2, GABA EC50 response) was “equipotent”. The “GABA-induced current post-UV, normalized to control” value in [1] (setting [32]) is 98.3±4.2%. In test [2], this compound had a Kb of 318 nM.

Take `N=c1ccc(-c2ccc(OCc3ccc(C(=O)c4ccccc4)cc3)cc2)nn1CCCC(=O)O` [GZ-B1]: the “GZ-B1 potency (IC50) compared with α1β3γ2” value in [17] and in test [18] was “significantly lower potencies” throughout. In addition, the Max inhibition in [3] worked out at 100%; in [19], 100%; in test [4] it was 100%; in test [5], 83 ± 3%; in test [6], 100%; in test [7], 75 ± 2%. In test [8], this compound returned a Max inhibition of 72 ± 4%. Besides, the “potency increase compared with wild type” value in test [4] is reported as ~ 2 fold. Further, the “reduction (loss) of GZ-B1 potency” value in [20] was 1,000 fold and > 1,000 fold. Further, the “GABA-induced current post-UV, normalized to control” value in test [1] (setting [32]) is on record as 50.8±1.8%. In test [1] (10 μM antagonist), the “irreversible reduction/block” value is listed as ~ 50%. Further, the IC50 in [9] was 155 nM; in [21] (IC50, inhibition of GABA EC50 response), 4220 nM; in test [21] (pIC50, inhibition of GABA EC50 response) it was 4230 nM; in test [10] (setting [33]), 71.5 nM; in [10] (setting [34]), 72 nM; in [11] (setting [35]), 487 nM. Also, the IC50 is 487 nM in [11] (IC50, α1β2R207Qγ2, as printed in text); more than 100000 nM in [12]; 13500 nM in [22]; 470 nM in test [13]; more than 100000 nM in test [14]; 182000 nM in test [23]. Moreover, the IC50 is 418 nM in [15], 426 nM in [16] and 258000 nM in test [24]. Further, the remaining activity at 10 µM in [25] amounted to 62 ± 4.2%; in [26] it was 73 ± 2.6%. Moreover, the results for the remaining activity at 100 µM in test [27], in [28] and in test [29] were 71 ± 2.6%, 84 ± 4.9% and 97 ± 3.4%, respectively. Besides, the Kb in [2] was 153 nM. For the same compound, the “reduction in synaptic current (sIPSC) amplitude” value in test [30] was not above 90%.

As for `N=c1ccc(-c2ccc(OCc3ccccc3)cc2)nn1CCCC(=O)O` [GZ-i1], the Kb in test [2] was found to be 13 nM. The “increase in affinity (Ki) over gabazine” value in test [2] (Schild analysis) came out at 20 fold. The “increase in potency over gabazine” value in test [31] is recorded as “more than 30 fold”.
